Results from US9480649B2, “Lipid microparticle growth factor formulations” (Biopharm Gesellschaft zur biotechnologischen Entwicklung …, priority 2006, dated 2016).
Values after ≈ are worked out from the molar mass of the structure shown. Read-outs that look alike come from different tables or passages of the source. Peptide text beside a SMILES is read from it.

Experiments:
[1] = for concentration prepared and stabilized using the lipid microparticle formulation: pH 7
Method: The tube was vortexed briefly. • c. The sample was placed in an ice-ethanol bath to maintain a temperature of approximately 4° C. • d. The tip of a probe sonicator was placed just above the bottom of the microcentrifuge tube. It was confirmed that the sonicator tip was not touching the sides or the bottom of the tube. • e. The sample was sonicated for 2 h at setting 10 on a 25% duty cycle with a period of 20 sec, producing an average power output of 22 watts. • f. The ice-ethanol bath was changed every 12 min to maintain temperature. • g. […] The solution was centrifuged for 4 min at 12,000 rpm to remove any metal particulates left by the probe tip. • i. 1 ml of the LMP was transferred to a clean 1.5 microcentrifuge tube.
Polyphenols are a group of chemical substances found in plants, characterized by the presence of more than one phenol group per molecule. The term comprises tannins, lignins and flavonoids. […] Myricetin (C15H10O8, MW 318.24) is a naturally occurring flavonoid found in many food sources known to have antioxidant and anti-inflammatory properties. […] Despite its therapeutic potential, myricetin has very limited water solubility. […] In an effort to increase the solubility of myricetin to enhance its therapeutic potential, myricetin was incorporated into lipid microparticles as follows: • j. 1 mg myricetin was added to the tube and vortexed to combine. […] The myricetin mixture was again placed over the ice-ethanol bath and fitted with the probe sonicator. • l. The mixture was sonicated on the same settings for 2.5 h, again replacing the ice-ethanol bath every 12-15 min. • m. […] The solution was centrifuged again for 5 min at 12,000 rpm to remove any metal particulates. • o. The solution was then titrated to pH 7 with 1 M NaOH.
In an effort to increase solubility, Vitamin E was incorporated into lipid LMP as follows: • j. 5 uL (4.65 mg) of vitamin E was added to the tube and vortexed to combine. • k. The Vitamin E mixture was placed over the ice-ethanol bath again and fitted with the probe sonicator. • l. The mixture was sonicated on the same settings for 2.5 h, again replacing the ice-ethanol bath every 12-15 min. • m. […] The solution was centrifuged again for 4 min at 12,000 rpm to remove any metal particulates. • o. The solution was then titrated to pH 7 with 1 M NaOH.
In an effort to increase the solubility of Leu-Leu-Leu to enhance it's therapeutic potential, Leu-Leu-Leu was incorporated into lipid microparticles as follows: • j. 8 mg Leu-Leu-Leu was added to the tube and vortexed to combine. […] The Leu-Leu-Leu mixture was again placed over the ice-ethanol bath and fitted with the probe sonicator. • l. The mixture was sonicated on the same settings for 2.5 h, again replacing the ice-ethanol bath every 12-15 min. • m. […] The solution was centrifuged again for 5 min at 12,000 rpm to remove any metal particulates. • o. The solution was then titrated to pH 7 with 1 M NaOH.

[2] = cited from earlier work
[3] = cited from earlier work; remark: listed apart in the source
[4] = rat, in vivo
Method: Rats were anesthetized with sodium pentobarbital (50 mg/kg intraperitoneal), and given additional doses as needed. Rats were placed on their back, and body temperature was maintained with a heating pad (rectal thermal probe set at 37° C.). Prior to onset of drug delivery, the descending aorta was cannulated for all experimental groups.
GDF-5 Administration: GDF-5 was ^125I labelled and formulated in 20 mM sodium acetate buffer at a pH of 4.25. For intranasal administration, a mixture of ^125I-GDF-5 and unlabeled GDF-5 was delivered as 10 μL drops alternating nares every two minutes with an average total volume of 113 μL (7.0 nmol and 38 pCi). A second formulation of GDF-5 for intranasal delivery was prepared in 200 mM sodium acetate buffer at pH 4.0 and delivered as an average total volume of 91 μL (5.2 nmol, 28 uCi). For intravenous administration, a mixture of ^125I-GDF-5 and unlabeled GDF-5 was delivered as an injection into the tail vein. […]
Measurement of ^125I-labelled GDF-5 with gamma counting: Peripheral and CNS rat tissues were dissected into anatomical areas. […] The concentration of GDF-5 in each tissue sample (nM) was calculated using the counts per minute, tissue weight, and specific activity measurements from standard samples of the GDF-5 mixture delivered.

[5] = system: cultured midbrain neurons; conditions: cited from earlier work
[6] = Solubility of GDF-5 in organic solvents (RP-HPLC of supernatant after centrifugation); format: physicochemical; conditions: dichlormethane, acetonitrile and DMSO solutions, centrifuged
From the text: The inventors of the present application have proceeded with an extensive investigation in order to overcome the above described problems. […] Hydrophobic drugs are very often highly soluble in the volatile organic solvents. […] After adding GDF-5, dichlormethane, acetonitrile and DMSO solutions were centrifuged and the GDF-5 content of the supernatant was checked with RP-HPLC.
After adding GDF-5, solutions were centrifuged and the GDF-5 content of supernatant was checked with RP-HPLC.

Solubility in water = format: physicochemical; conditions: based on our own results

Vitamin E
increase of aqueous solubility at neutral pH using the LMP formulation [1]: increased greatly | concentration prepared and stabilized using the lipid microparticle formulation [1]: 4650 µg/mL

beta amyloid 1-42
solubility in aqueous solution ([2]; pH 3): very soluble | solubility in aqueous solution ([2]; pH 7): essentially insoluble | solubility in aqueous solution ([2]; physiological pH, e.g., pH 7.4): very low solubility

growth and differentiation factor-5 [GDF-5]
pH threshold for solubility ([3]; aqueous solutions of GDF-5): 4.3 | pH above which the protein starts precipitating ([3]; aqueous solutions, profile shown in EP 1 462 126): above 4.25 | blood exposure, intravenous relative to intranasal [4]: twice as great | midbrain concentration, intravenous relative to intranasal [4]: less than half | concentration at which neuroprotective effects have been demonstrated [5]: 1 nM | retrieval percentage of GDF-5 in supernatant [6]: below 15%

O=c1c(O)c(-c2cc(O)c(O)c(O)c2)oc2cc(O)cc(O)c12 [myricetin]
increase of aqueous solubility at neutral pH using the LMP formulation [1]: 15.4 fold | concentration prepared and stabilized using the lipid microparticle formulation ([1]; 2.5 h): 1000 µg/mL | solubility (Solubility in water): 65 µg/mL (≈ 0.204 mM)

CC(C)C[C@H](NC(=O)[C@H](CC(C)C)NC(=O)[C@@H](N)CC(C)C)C(=O)O [Leu-Leu-Leu] (H-Leu-Leu-Leu-OH; N-terminus and C-terminus assumed)
increase of aqueous solubility at neutral pH using the LMP formulation [1]: over three-fold | concentration prepared and stabilized using the lipid microparticle formulation [1]: 8000 µg/mL | solubility (Solubility in water): ~2500 µg/mL (≈ 6.99 mM)
